According to patent US20070254023A1, “Perorally Administrable Antimicrobial Composition” (priority 2004, published 2007):

Tested on: bifidobacteria
Assay: Effect of peroral administration on bifidobacteria of the gut in CBA mice
Format: in vivo
Details: ten-day peroral course, tetracycline 750 mg/kg
Excerpt: Comparative experimental trials of the effect of peroral administration of antibiotics and an antibacterial composition comprising an antibiotic and lactulose on gut organisms and liver condition in CBA mice.
Models of experimental pathology caused by peroral administration of ampicillin and tetracycline in large doses were used.

Question: For `CN(C)[C@@H]1C(O)=C(C(N)=O)C(=O)[C@@]2(O)C(O)=C3C(=O)c4c(O)cccc4[C@@](C)(O)[C@H]3C[C@@H]12` [tetracycline], which “contents of bifidobacteria in the large intestine” value is on record?
Answer: reduced the contents of bifidobacteria
